{"source": "patent US20080280814A1", "about": "“Pharmaceutical Compositions Containing Insulin and Insulinotropic Peptide” (Novo Nordisk A/S, priority 2004, published 2008)", "target": "T1, His^B10 anion site of the R6 hexameric aspart (Homo sapiens, UniProt P01308, P52D)", "T1 construct": "The A-chain is a 21 amino acid peptide and the B-chain is a 30 amino acid peptide", "T1 sequence (P01308 25-54 P52D)": "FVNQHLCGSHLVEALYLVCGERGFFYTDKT", "T1 sequence (P01308 90-110)": "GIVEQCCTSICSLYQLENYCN", "assay": "600 MHz proton NMR of aspart/liraglutide mixtures (R6 hexamer signal of Cys A6 alpha proton at 5.6 ppm)", "format": "binding", "details": "for stabilization of the aspart R6 conformation (NMR resonances between 5 and 6 ppm): ligand at 3 mM added to the aspart/liraglutide mixtures of FIG. 13, FIG. 14, 15", "method": "Insulin Aspart (B28 Asp human insulin) and liraglutide mixtures were prepared with constant aspart concentration (0.6 mM) and increasing concentration of liraglutide (going from 0 to 2.4 mM). Mixtures are formulated at pH 7.5, 1.6% w/v d-glycerol, 0.3 mM Zn(Ac)2, 30 mM d-phenol (deuterated phenol in order to avoid any proton NMR signal). […] This region of the proton NMR signal only included signals from aspart, no signals from liraglutide were present.\nLigands for the His^B10 anion site of the R6 hexameric aspart entity will stabilize this R6 conformation. Two such ligands were tested under the same conditions as was used in the experiment depicted in FIG. 13 with the addition of ligands at 3 mM concentration."}
{"smiles": "c1ccc(Cc2nn[nH]n2)cc1", "note": "[5-Benzyl-2H-tetrazole]", "values": [{"measurement": "stabilization of the aspart R6 conformation (NMR resonances between 5 and 6 ppm)", "result": "stabilized the R6 conformation"}]}
{"smiles": "O=C1NC(=O)/C(=C/c2cccc3ccccc23)S1", "note": "[5-Naphthalen-1-ylmethylenethiazolidine-2,4-dione]", "values": [{"measurement": "stabilization of the aspart R6 conformation (NMR resonances between 5 and 6 ppm)", "result": "invariant aspart resonances under increasing liraglutide concentration"}, {"measurement": "tightness of binding to the Zn-binding pocket of aspart, compared", "setting": "ligand at 3 mM, FIG. 15 against FIG. 14", "result": "binds even tighter than the 5-Benzyl-2H-tetrazole"}]}
